# Measurements as given in patent US6573297B2, “(2-substituted oxyphenyl)alkanamide derivative, hair growth promoter and external composition for skin using the same” (Shiseido Co., Ltd., priority 1999, dated 2003).
# System: C3H/HeNCrj mice
# Experiment: Hair Regrowth Test
# Format: in vivo
# Details: 23 days of application; 0.1 ml of 0.1 w/v % ethanol solution on shaved back once a day; average of group (10 mice)
# Experimental: By using C3H/HeNCrj mice, whose hair cycle was in resting stage, the experiment was performed according to the method of Ogawa et. al. (Normal and Abnormal Epidermal Differentiation, Edited by M. Seiji and I. A. Bernstein, Pages 159-170, 1982, Todai Shuppan). 10 mice were used in a group and the mice's hair within the area of 3×4 cm of the regions of back was shaved by a clipper and a shaver. 0.1 ml of ethanol (negative contrast) or ethanol solution of the tested compound (0.1 w/v %) was applied on the shaved portion once a day. For hair regrowth effect of the tested compound, the hair regrowth area of mice's region of back was measured and ratio of the hair regrowth area with respect to the shaved area was evaluated as hair regrowth area rate (%).
row,Compound,Hair Regrowth Area Rate
1,"CCCCCCCCCCCCCCCCCCNC(=O)Oc1ccccc1CCC(=O)NCCCN(C)C.Cl [Compound 2, 2-[3-[[3-(Dimethylamino)propyl]amino]-3-oxopropyl]phenyl N-octadecylcarbamate hydrochloride]",10%
2,"CCCCCCCCCCCCCCCCCCNC(=O)Oc1ccccc1CCC(=O)NCCCN(C)C [Compound 1, 2-[3-[[3-(Dimethylamino)propyl]amino]-3-oxopropyl]phenyl N-octadecylcarbamate]",69%

# Same assay, conditions: 24 days of application; 0.1 ml of 0.1 w/v % ethanol solution on shaved back once a day; average of group (10 mice)
row,Compound,Hair Regrowth Area Rate
1,"CCCCCCCCCCCCCCCCCCNC(=O)Oc1ccccc1CCC(=O)N1CCN(C)CC1.Cl [Compound 4, 2-[3-(4-Methylpiperazino)-3-oxopropyl]phenyl N-octadecylcarbamate hydrochloride]",100%
2,"CCCCCCCCCCCCCCCCCCOc1ccccc1CCC(=O)N1CCN(C)CC1.Cl [Compound 12, 1-(4-Methylpiperazino)-3-[2-(octadecyloxy)phenyl]-1-propanone hydrochloride]",38%
3,"CCCCCCCCCCCCCCCCCCNC(=O)Oc1ccccc1CCC(=O)NCCCN1CCOCC1 [Compound 5, 2-{3-[(3-Morpholinopropyl)amino]-3-oxopropyl}phenyl N-octadecylcarbamate]",16%
4,"CCCCCCCCCCCCCCCCCCNC(=O)Oc1ccccc1CCC(=O)N1CCN(C)CC1 [Compound 3, 2-[3-(4-Methylpiperazino)-3-oxopropyl]phenyl N-octadecylcarbamate]",100%
5,"CCCCCCCCCCCCCCCCCCOc1ccccc1CCC(=O)NCCCN1CCOCC1.Cl [Compound 10, N-(3-Morpholinopropyl)-3-[2-(octadecyloxy)phenyl]propanamide hydrochloride]",38%
6,"CCCCCCCCCCCCCCCCCCNC(=O)Oc1ccccc1CCC(=O)NCCCN1CCOCC1.Cl [Compound 6, 2-{3-[(3-Morpholinopropyl)amino]-3-oxopropyl}phenyl N-octadecylcarbamate hydrochloride]",17%
7,"CCCCCCCCCCCCCCCCCCOc1ccccc1CCC(=O)NCCCN(C)C.Cl [Compound 8, N-[3-(Dimethylamino)propyl]-3-[2-(octadecyloxy)phenyl]propanamide hydrochloride]",100%
